What was measured:
[1] = system: Human immunodeficiency virus 1; test: Antiviral activity against HIV-1 NL4-3 infected in human MT2 cells assessed as reduction in viral replication assessed as inhibition of viral growth incubated for 72 hrs by ELISA; assay type: functional, organism-based; conditions: Human immunodeficiency virus 1, NL4-3, MT2, 72 h
[2] = system: Human immunodeficiency virus 1; test: Antiviral activity against HIV1 IIIB infected in human MT4 cells assessed as reduction in virus-induced cytopathic effect incubated for 4 days by MTT assay; assay type: functional, organism-based; conditions: Human immunodeficiency virus 1, IIIB, MT4, 96 h
[3] = Selectivity index, ratio of CC50 for human MT4 cells to EC50 for antiviral activity against HIV1 infected in human MT4 cells; assay type: toxicity, cell-based; conditions: read-out: Ratio CC50/EC50
[4] = Cytotoxicity against african green monkey Vero cells assessed as reduction in cell viability measured after 72 hrs by MTT assay; assay type: toxicity, cell-based; conditions: chlorocebus sabaeus
[5] = Selectivity index, ratio of CC50 for cytotoxicity against human MT2 cells to EC50 for antiviral activity against HIV-1 IIIB infected in human MT2 cells; assay type: toxicity, cell-based; conditions: read-out: Ratio CC50/EC50
[6] = system: Human immunodeficiency virus 1; test: Antiviral activity against HIV-1 IIIB infected in human C8166 cells assessed as reduction in virus -induced cytopathic effect measured after 48 hrs by CellTiter-Glo Luminescent cell viability assay; assay type: functional, organism-based; conditions: Human immunodeficiency virus 1, IIIB, C8166, 48 h
[7] = system: C8166; test: Cytotoxicity against human C8166 cells assessed as reduction in cell viability; assay type: functional
[8] = system: Human immunodeficiency virus 1; test: Antiviral activity against HIV-1 IIIB infected in human C8166 cells; assay type: functional, organism-based; conditions: Human immunodeficiency virus 1, IIIB
[9] = system: MT4; test: Cytotoxicity against human MT4 cells assessed as reduction in cell growth incubated for 3 days by CellTiter-Glo luminescent assay; assay type: functional; conditions: MT4, 72 h, time 3 day
[10] = system: Human immunodeficiency virus 2; test: Antiviral activity against HIV-2 ROD infected in human MT4 cells assessed as virus-induced cytopathic effect incubated for 5 days by MTT assay; assay type: functional, organism-based; conditions: Human immunodeficiency virus 2, ROD, MT4, 120 h
[11] = system: Human immunodeficiency virus 1; test: Antiviral activity against wild type HIV-1 NL4-3 infected in human MT4 cells assessed as reduction in viral replication measured for 72 hrs by ELISA analysis; assay type: functional, organism-based; conditions: Human immunodeficiency virus 1, NL4-3, MT4, 72 h
[12] = system: Human immunodeficiency virus 1; test: Antiviral activity against HIV-1 NL4-3 harboring infected K103N mutant infected in human MT4 cells assessed as reduction in viral replication; assay type: functional, organism-based; conditions: Human immunodeficiency virus 1, NL4-3, MT4
[13] = system: Human immunodeficiency virus 1; test: Antiviral activity against wild-type HIV-1 IIIB infected in human MT4 cells assessed as reduction in virus-induced cytopathic effect incubated for 5 days by MTT assay; assay type: functional, organism-based; conditions: Human immunodeficiency virus 1, IIIB, MT4, 120 h
[14] = system: MT4; test: Cytotoxicity against human MT4 cells assessed as reduction in cell growth after 5 days by MTT assay; assay type: functional; conditions: MT4, 120 h, time 5 day
[15] = system: MT4; test: Cytotoxicity against human MT4 cells; assay type: functional
[16] = system: Human immunodeficiency virus 1; test: Antiviral activity against wild type HIV-1 NL4-3 infected in human MT4 cells assessed as reduction in viral replication; assay type: functional, organism-based; conditions: Human immunodeficiency virus 1, NL4-3, MT4; read-out: EC50
[17] = system: Human immunodeficiency virus 1; test: Antiviral activity against HIV-1 NL4-3 harboring infected Y181C mutant infected in human MT4 cells assessed as reduction in viral replication; assay type: functional, organism-based; conditions: Human immunodeficiency virus 1, NL4-3, MT4

Structure (SMILES): CCC(C)Sc1nc(O)c(C)c(Cc2ccccc2)n1 (configuration not stated)
- EC50 [1]: 200 nM

Structure (SMILES): Cc1c(O)nc(SC2CCCCC2)nc1Cc1ccccc1
- EC50 [2]: 600 nM
- selectivity ratio [3]: > 530

Structure (SMILES): CCC(C)Sc1nc(O)cc(Cc2ccccc2)n1 (configuration not stated)
- EC50 [1]: 80 nM

Structure (SMILES): CCC(C)Sc1nc(O)cc(Cc2cccc(C)c2)n1 (configuration not stated)
- EC50 [2]: 600 nM
- selectivity ratio [3]: > 578

Structure (SMILES): Cc1c(O)nc(SC2CCCC2)nc1Cc1ccccc1
- EC50 [2]: 800 nM
- selectivity ratio [3]: > 555

Structure (SMILES): Oc1cc(Cc2ccccc2)nc(SC2CCCCC2)n1
- EC50 [2]: 800 nM
- selectivity ratio [3]: > 412

Structure (SMILES): CCC(C)Sc1nc(O)cc(Cc2c(Cl)cccc2Cl)n1 (configuration not stated)
- CC50 at 72 h [4]: > 200000 nM
- selectivity ratio [5]: > 1430
- EC50 [6]: 140 nM
- CC50 [7]: > 200000 nM

Structure (SMILES): CCC(C)Sc1nc(O)c(C)c(Cc2c(Cl)cccc2Cl)n1 (configuration not stated)
- CC50 at 72 h [4]: > 200000 nM
- selectivity ratio [5]: > 4000
- EC50 [6]: 50 nM
- CC50 [7]: > 200000 nM

Structure (SMILES): CCc1c(Cc2ccccc2)nc(SCC(=O)c2ccc(OC)cc2)[nH]c1=O
- EC50 [8]: 45 nM
- CC50 [9]: 178000 nM
- EC50 [10]: 18900 nM

Structure (SMILES): COc1ccc(C(=O)CSc2nc(Cc3ccccc3)c(C(C)C)c(=O)[nH]2)cc1
- EC50 [8]: 30 nM
- CC50 [9]: 203000 nM
- EC50 [10]: 13400 nM

Structure (SMILES): COc1ccc(/C=C/CSc2nc(C(C)c3c(F)cccc3F)c(C)c(=O)[nH]2)cc1 (configuration not stated)
- EC50 [11]: 2 nM

Structure (SMILES): CCc1c(C(C)c2c(F)cccc2F)nc(SC/C=C/c2ccc(OC)cc2)[nH]c1=O (configuration not stated)
- EC50 [11]: 2 nM

Structure (SMILES): CCc1c(C(C)c2c(F)cccc2F)nc(SC/C=C/c2ccc([N+](=O)[O-])cc2)[nH]c1=O (configuration not stated)
- EC50 [11]: 4 nM

Structure (SMILES): COc1ccc(CSc2nc(C(C)c3c(Cl)cccc3Cl)c(C)c(=O)[nH]2)cc1 (configuration not stated)
- EC50 [12]: 5720 nM
- EC50 [11]: 1 nM

Structure (SMILES): COc1ccc(CSc2nc(C(C)c3c(F)cccc3F)c(C)c(=O)[nH]2)cc1 (configuration not stated)
- EC50 [11]: 2 nM

Structure (SMILES): Cc1c(C(C)c2c(F)cccc2F)nc(SCc2ccc([N+](=O)[O-])cc2)[nH]c1=O (configuration not stated)
- EC50 [12]: 650 nM
- EC50 [11]: 3 nM

Structure (SMILES): Cc1c(O)nc(SCC(C)C)nc1Cc1ccccc1
- EC50 [2]: 800 nM
- selectivity ratio [3]: 162

Structure (SMILES): CSCSc1nc(O)c(C)c(Cc2ccccc2)n1
- EC50 [1]: 1200 nM

Structure (SMILES): Cc1cccc(Cc2nc(SC3CCCC3)nc(O)c2C)c1
- EC50 [2]: 600 nM
- selectivity ratio [3]: > 530

Structure (SMILES): CSCSc1nc(O)c(C(C)C)c(Cc2ccccc2)n1
- EC50 [1]: 40 nM

Structure (SMILES): CCc1c(O)nc(SCSC)nc1Cc1ccccc1
- EC50 [1]: 800 nM

Structure (SMILES): Cc1c(C(C)c2c(F)cccc2F)nc(SCc2ccc(C#N)cc2)[nH]c1=O (configuration not stated)
- EC50 [11]: 7 nM

Structure (SMILES): Cc1c(C(C)c2c(F)cccc2F)nc(NC(C)C)[nH]c1=O (configuration not stated)
- EC50 [13]: 20 nM
- CC50 [14]: > 200000 nM

Structure (SMILES): Cc1c(Cc2c(Cl)cccc2Cl)nc(SCc2cn(Cc3ccc(S(N)(=O)=O)cc3)nn2)[nH]c1=O
- CC50 [15]: 95500 nM

Structure (SMILES): Cc1c(Cc2c(Cl)cccc2Cl)nc(SCC(=O)Nc2ccc(F)c(F)c2)[nH]c1=O
- EC50 [8]: 690 nM
- selectivity ratio [3]: > 387
- CC50 [9]: > 265000 nM

Structure (SMILES): Cc1c(Cc2c(Cl)cccc2Cl)nc(SCC(=O)Nc2ccc(Br)cc2)[nH]c1=O
- EC50 [8]: 180 nM
- selectivity ratio [3]: > 1330
- CC50 [9]: > 243000 nM

Structure (SMILES): Cc1c(Cc2c(Cl)cccc2Cl)nc(SCC(=O)Nc2ccc(Cl)cc2)[nH]c1=O
- EC50 [8]: 320 nM
- selectivity ratio [3]: > 836
- CC50 [9]: > 266000 nM

Structure (SMILES): Cc1c(Cc2c(Cl)cccc2Cl)nc(SCC(=O)Nc2ccc([N+](=O)[O-])cc2)[nH]c1=O
- EC50 [8]: 990 nM
- selectivity ratio [3]: 264
- CC50 [9]: 45800 nM

Structure (SMILES): CC(C)CCSc1nc(Cc2c(F)cccc2I)cc(=O)[nH]1
- CC50 at 72 h [4]: > 200000 nM
- selectivity ratio [5]: > 4000
- EC50 [6]: 50 nM
- CC50 [7]: > 200000 nM

Structure (SMILES): CCC(C)Sc1nc(Cc2c(F)cccc2I)cc(=O)[nH]1 (configuration not stated)
- CC50 at 72 h [4]: > 200000 nM
- selectivity ratio [5]: > 4000
- EC50 [6]: 50 nM
- CC50 [7]: > 200000 nM

Structure (SMILES): C#CCOC(=O)[C@H](C)NP(=O)(Oc1ccccc1)Oc1nc(N(C)C)nc(C(C)c2c(F)cccc2F)c1C (some centres not stated)
- EC50 [16]: 3 nM
- EC50 [17]: 500 nM

Structure (SMILES): CCOC(=O)[C@H](C)NP(=O)(Oc1ccccc1)Oc1nc(N(C)C)nc(C(C)c2c(F)cccc2F)c1C (some centres not stated)
- EC50 [16]: 6 nM
- EC50 [17]: 1000 nM

Reference: ChEMBL document CHEMBL6115028, “An Amazing 30-Year Journey around the DABO Family: A Medicinal Chemistry Lesson on a Versatile Class of Non-nucleoside HIV-1 Reverse Transcriptase Inhibitors” (J Med Chem, 2025)
